Assay results: publication PMC5823858, “Endogenous insensitivity to the Orco agonist VUAA1 reveals novel olfactory receptor complex properties in the specialist fly Mayetiola destructor” (Scientific Reports, 2018)

Key:
Assay in all cases: Fluo-4AM calcium fluorescence, plate reader
[1] = tested on: T1, AsegOR7 + MdesOrco; format: cell-based, Agrotis segetum; conditions: agonist of OR; heterospecific Orco co-expressed
T1 construct: gene OR7; heterospecific complex: A. segetum OR7 (V5 tag) with Mayetiola destructor Orco (c-myc tag), TREx/HEK293; with Odorant receptor coreceptor (Mayetiola destructor)

[2] = tested on: T1, AsegOR7 + MdesOrco; format: cell-based, Agrotis segetum; conditions: agonist of OR; heterospecific mutant Orco co-expressed
Excerpt: Fluo-4AM calcium fluorescence, plate reader on AsegOR7 + MdesOrco | when co-expressed with either version of MdesOrco

[3] = tested on: T2, AsegOR7 + AsegOrco; format: cell-based, Agrotis segetum; conditions: agonist of OR; OR and Orco co-expressed
T2 construct: gene OR7; stoichiometry unknown; with Odorant receptor coreceptor
Excerpt: Fluo-4AM calcium fluorescence, plate reader on AsegOR7 + AsegOrco | when AsegOR7 was co-expressed with WT AsegOrco the cells responded dose dependently

[4] = tested on: T2, AsegOR7 + AsegOrco; format: cell-based, Agrotis segetum; conditions: agonist of OR; OR and mutant Orco co-expressed
[5] = tested on: T3, AsegOR7 + DmelOrco; format: cell-based, Agrotis segetum; conditions: agonist of OR; heterospecific Orco co-expressed
T3 construct: gene OR7; heterospecific complex: A. segetum OR7 (V5 tag) with Drosophila melanogaster Orco (c-myc tag), TREx/HEK293; with Odorant receptor coreceptor (Drosophila melanogaster)
Excerpt: Fluo-4AM calcium fluorescence, plate reader on AsegOR7 + DmelOrco | they responded well to their respective OR-specific ligand

[6] = tested on: T4, MdesOR115 + MdesOrco; format: cell-based, Mayetiola destructor; conditions: agonist of OR; OR and Orco co-expressed
T4 construct: gene OR115; stoichiometry unknown; with Odorant receptor coreceptor

[7] = tested on: T4, MdesOR115 + MdesOrco; format: cell-based, Mayetiola destructor; conditions: agonist of OR; OR and mutant Orco co-expressed
Excerpt: Fluo-4AM calcium fluorescence, plate reader on MdesOR115 + MdesOrco | when co-expressed with either WT MdesOrco or MdesOrco^(H81F, N133L, A350S)

[8] = tested on: T5, MdesOR115 + DmelOrco; format: cell-based, Mayetiola destructor; conditions: agonist of OR; heterospecific Orco co-expressed
T5 construct: gene OR115; heterospecific complex: M. destructor OR115 (V5 tag) with Drosophila melanogaster Orco (c-myc tag), TREx/HEK293; with Odorant receptor coreceptor (Drosophila melanogaster)

[9] = tested on: T6, MdesOR115 + AsegOrco; format: cell-based, Mayetiola destructor; conditions: agonist of OR; heterospecific Orco co-expressed
T6 construct: gene OR115; heterospecific complex: M. destructor OR115 (V5 tag) with Agrotis segetum Orco (c-myc tag), TREx/HEK293; with Odorant receptor coreceptor (Agrotis segetum)

[10] = target: T7, DmelOR56a + DmelOrco (Drosophila melanogaster, UniProt Q9V8Y7); format: cell-based; conditions: agonist of OR; OR and Orco co-expressed
T7 construct: gene Or56a; stoichiometry unknown; with Odorant receptor coreceptor
T7 sequence (Q9V8Y7 1-419): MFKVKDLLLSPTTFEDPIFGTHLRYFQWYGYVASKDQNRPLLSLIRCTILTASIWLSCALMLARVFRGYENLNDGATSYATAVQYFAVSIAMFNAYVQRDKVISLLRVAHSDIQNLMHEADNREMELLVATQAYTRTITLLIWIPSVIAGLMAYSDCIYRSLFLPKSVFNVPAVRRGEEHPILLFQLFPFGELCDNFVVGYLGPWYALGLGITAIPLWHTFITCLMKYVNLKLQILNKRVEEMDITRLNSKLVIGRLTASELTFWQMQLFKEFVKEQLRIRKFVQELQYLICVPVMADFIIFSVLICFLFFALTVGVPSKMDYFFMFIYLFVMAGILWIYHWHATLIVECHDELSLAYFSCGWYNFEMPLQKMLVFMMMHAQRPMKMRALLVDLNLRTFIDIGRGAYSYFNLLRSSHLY
T7 sequence (Q9VNB5 1-486 partner): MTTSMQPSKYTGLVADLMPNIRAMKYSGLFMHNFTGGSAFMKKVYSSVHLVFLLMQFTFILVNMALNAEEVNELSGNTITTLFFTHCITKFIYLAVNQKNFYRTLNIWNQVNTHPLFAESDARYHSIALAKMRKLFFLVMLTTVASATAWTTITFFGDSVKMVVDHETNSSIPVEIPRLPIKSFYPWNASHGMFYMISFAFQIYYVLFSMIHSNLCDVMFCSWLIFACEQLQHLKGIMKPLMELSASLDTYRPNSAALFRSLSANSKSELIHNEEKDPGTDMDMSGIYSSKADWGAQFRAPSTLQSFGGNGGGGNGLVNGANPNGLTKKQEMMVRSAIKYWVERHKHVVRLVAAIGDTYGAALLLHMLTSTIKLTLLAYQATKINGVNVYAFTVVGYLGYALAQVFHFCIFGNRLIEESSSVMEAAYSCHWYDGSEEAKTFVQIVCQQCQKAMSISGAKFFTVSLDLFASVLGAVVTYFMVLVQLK
Excerpt: Fluo-4AM calcium fluorescence, plate reader on DmelOR56a + DmelOrco | when DmelOR56a was co-expressed with WT DmelOrco the cells responded dose-dependently to geosmin

[11] = target: T8, DmelOR56a + MdesOrco (Drosophila melanogaster, UniProt Q9V8Y7); format: cell-based; conditions: agonist of OR; heterospecific Orco co-expressed
T8 construct: gene Or56a; heterospecific complex: D. melanogaster OR56a (V5 tag) with Mayetiola destructor Orco (c-myc tag), TREx/HEK293; with Odorant receptor coreceptor (Mayetiola destructor)
T8 sequence (Q9V8Y7 1-419): T7 sequence (Q9V8Y7 1-419)
T8 sequence (A0A1D8GZG0 1-466 partner): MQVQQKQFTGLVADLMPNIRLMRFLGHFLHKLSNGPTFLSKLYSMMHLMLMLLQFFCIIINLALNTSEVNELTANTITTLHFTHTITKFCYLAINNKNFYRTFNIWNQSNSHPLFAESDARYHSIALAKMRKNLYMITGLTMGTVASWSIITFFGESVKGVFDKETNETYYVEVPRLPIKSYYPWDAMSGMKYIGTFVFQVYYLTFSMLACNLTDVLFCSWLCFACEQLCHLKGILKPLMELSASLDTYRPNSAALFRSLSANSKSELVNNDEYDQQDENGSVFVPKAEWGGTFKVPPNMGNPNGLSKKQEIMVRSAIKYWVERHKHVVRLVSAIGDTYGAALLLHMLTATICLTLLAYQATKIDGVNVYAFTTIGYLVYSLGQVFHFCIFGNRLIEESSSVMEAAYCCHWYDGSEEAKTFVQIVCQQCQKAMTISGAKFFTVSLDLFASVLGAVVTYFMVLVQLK

[12] = target: T9, DmelOR56a + AsegOrco (Drosophila melanogaster, UniProt Q9V8Y7); format: cell-based; conditions: agonist of OR; heterospecific Orco co-expressed
T9 construct: gene Or56a; heterospecific complex: D. melanogaster OR56a (V5 tag) with Agrotis segetum Orco (c-myc tag), TREx/HEK293; with Odorant receptor coreceptor (Agrotis segetum)
T9 sequence (Q9V8Y7 1-419): T7 sequence (Q9V8Y7 1-419)
T9 sequence (U5KJY5 2-473 partner limits assumed): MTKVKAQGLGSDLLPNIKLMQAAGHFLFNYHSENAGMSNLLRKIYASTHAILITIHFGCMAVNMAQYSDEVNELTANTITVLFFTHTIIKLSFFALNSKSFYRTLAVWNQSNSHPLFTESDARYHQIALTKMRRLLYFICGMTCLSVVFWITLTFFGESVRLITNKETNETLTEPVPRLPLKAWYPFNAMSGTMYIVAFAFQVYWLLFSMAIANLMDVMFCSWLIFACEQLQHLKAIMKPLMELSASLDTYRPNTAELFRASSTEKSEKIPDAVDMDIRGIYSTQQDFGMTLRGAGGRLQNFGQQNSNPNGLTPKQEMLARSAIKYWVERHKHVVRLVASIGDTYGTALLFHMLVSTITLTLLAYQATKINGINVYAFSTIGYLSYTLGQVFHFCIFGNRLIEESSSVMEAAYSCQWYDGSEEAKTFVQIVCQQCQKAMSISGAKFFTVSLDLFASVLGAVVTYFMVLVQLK
Excerpt: Fluo-4AM calcium fluorescence, plate reader on DmelOR56a + AsegOrco | they responded well to their respective OR-specific ligand

[13] = target: T10, MdesOrco (Mayetiola destructor, UniProt A0A1D8GZG0, A350S/C230Q/C408S/H81F/I150T/N133L/T205L); format: cell-based
T10 construct: homomeric channel
T10 sequence (A0A1D8GZG0 1-466 H81F/N133L/I150T/T205L/C230Q/A350S/C408S): T8 sequence (A0A1D8GZG0 1-466 partner)
Excerpt: Fluo-4AM calcium fluorescence, plate reader on MdesOrco | contained the seven point mutations responded well to VUAA1

[14] = target: T11, MdesOrco (Mayetiola destructor, UniProt A0A1D8GZG0, A350S/H81F/N133L); format: cell-based
T11 construct: homomeric channel
T11 sequence (A0A1D8GZG0 1-466 H81F/N133L/A350S): T8 sequence (A0A1D8GZG0 1-466 partner)
Excerpt: Fluo-4AM calcium fluorescence, plate reader on MdesOrco | MdesOrco^(H81F, N133L, A350S) responded similarly to VUAA1 in HEK293 cells

[15] = target: T12, DmelOrco (Drosophila melanogaster, UniProt Q9VNB5); format: cell-based
T12 construct: gene Orco; homomeric channel
T12 sequence (Q9VNB5 1-486): T7 sequence (Q9VNB5 1-486 partner)
Excerpt: Fluo-4AM calcium fluorescence, plate reader on DmelOrco | WT AsegOrco and DmelOrco responded dose-dependently to VUAA1

[16] = target: T13, AsegOrco (Agrotis segetum, UniProt U5KJY5); format: cell-based
T13 construct: homomeric channel
T13 sequence (U5KJY5 2-473 limits assumed): T9 sequence (U5KJY5 2-473 partner limits assumed)
Excerpt: Fluo-4AM calcium fluorescence, plate reader on AsegOrco | WT AsegOrco and DmelOrco responded dose-dependently to VUAA1

**Q.** Which results are given for `CCCC/C=C\CCCCOC(C)=O` [(Z)-5-decenyl acetate]?
**A.** EC50 [1]: 2500 nM; EC50 [2]: 2800 nM; EC50 [3]: 2300 nM; EC50 [4]: 2200 nM; EC50 [5]: 1200 nM

**Q.** What does the source list for `CC/C=C/C=C/CCCCC[C@H](C)OC(C)=O` [(2S,8E,10E)-8,10-tridecadien-2-yl acetate]?
**A.** EC50 [6]: 2600 nM; EC50 [7]: 3100 nM; EC50 [8]: 6200 nM; EC50 [9]: 3500 nM

**Q.** For `C[C@H]1CCC[C@@]2(C)CCCC[C@]12O` [geosmin], which EC50 [10] is on record?
**A.** 19.1 nM

**Q.** And the EC50 [11]?
**A.** 93.5 nM

**Q.** And the EC50 [12]?
**A.** 37.2 nM

**Q.** How did the EC50 [13] turn out when `CCc1ccc(NC(=O)CSc2nnc(-c3cccnc3)n2CC)cc1` [VUAA1, N-(4-ethylphenyl)-2-((4-ethyl-5-(3-pyridinyl)-4H-1,2,4-triazol-3-yl)thio)acetamide] was run?
**A.** 26300 nM

**Q.** And the EC50 [14]?
**A.** 25000 nM

**Q.** What about the EC50 [15] of the same compound?
**A.** 15300 nM

**Q.** And the EC50 [16]?
**A.** 27300 nM
